The record followed here is BindingDB's records for doi:10.1016/j.ejmech.2021.113298 (Chung-Ang University, 2021).

By IC50 is commonly meant the midpoint of a concentration-inhibition curve.

Bounds are passed on as bounds.

This assay is described as follows: Inhibition of CSF1R in mouse MNFS-60 cells assessed as reduction in CSF-induced cell viability after 48 hrs by Ez-cytox reagent based assay.

In the case of `Cc1ccc(NCc2ccc(C(F)(F)F)nc2)cc1NC(=O)c1cnn2ccccc12`, the IC50 was 5770 nM.
For the compound `Cc1ccc(NC(=O)c2ccc(C(F)(F)F)nc2)cc1NC(=O)c1cnn2ccccc12`, the IC50 turned out to be 27 nM.
For `CCN1CCN(Cc2ccc(C(=O)Nc3ccc(C)c(NCc4cnc5cccnn45)c3)cc2C(F)(F)F)CC1`, the IC50 is 660 nM.
For `CCN1CCN(Cc2ccc(C(=O)Nc3ccc(C)c(NC(=O)c4cnn5ccccc45)c3)cc2C(F)(F)F)CC1`, the IC50 is 91 nM.
Then `Cc1cn(-c2cc(NC(=O)c3ccc(C)c(Nc4nccc(-c5cccnc5)n4)c3)cc(C(F)(F)F)c2)cn1` [AMN 107], with 534 nM; and `Cc1ccc(NC(=O)c2ccc(C(F)(F)F)nc2)cc1NC(=O)c1cnc2cccnn12`, with above 10000 nM; and `CCN1CCN(Cc2ccc(C(=O)Nc3ccc(C)c(NC(=O)c4ncc[nH]4)c3)cc2C(F)(F)F)CC1`, with 5780 nM.
Consider `CCN1CCN(Cc2ccc(C(=O)Nc3ccc(C)c(NC(=O)c4cnnc5ccccc45)c3)cc2C(F)(F)F)CC1`, for which the IC50 was 1600 nM.
For the compound `CCN1CCN(Cc2ccc(NC(=O)c3ccc(C)c(NC(=O)c4cnc5cccnn45)c3)cc2C(F)(F)F)CC1`, the IC50 stood at 122 nM.
To `Cc1ccc(NC(=O)c2ccc(C(F)(F)F)nc2)cc1NC(=O)c1cnc2ccccn12` belongs 25 nM; to `CCN1CCN(Cc2ccc(C(=O)Nc3ccc(C)c(NC(=O)c4n[nH]c5ccccc45)c3)cc2C(F)(F)F)CC1`, 1580 nM; to `CCN1CCN(Cc2ccc(C(=O)Nc3ccc(C)c(NC(=O)c4c[nH]cn4)c3)cc2C(F)(F)F)CC1`, 5430 nM.
With `CNC(=O)c1cc(Oc2ccc3nc(N[C@H]4CCCC[C@H]4O)sc3c2)ccn1`, the IC50 was found to be 245 nM.
As to `CCN1CCN(Cc2ccc(C(=O)Nc3ccc(C)c(NC(=O)c4ccn(C)n4)c3)cc2C(F)(F)F)CC1`, the IC50 is 5150 nM.
Then `Cc1ccc(NCc2ccc(C(F)(F)F)nc2)cc1NC(=O)c1cnc2ccccn12`, with 3150 nM; and `FC(F)(F)c1ccc(CNc2ccc(Cc3c[nH]c4ncc(Cl)cc34)cn2)cn1`, with 14 nM; and `CCN1CCN(Cc2ccc(C(=O)Nc3ccc(C)c(NC(=O)c4cnc5ncccn45)c3)cc2C(F)(F)F)CC1`, with 4170 nM.
In the case of `CCN1CCN(Cc2ccc(C(=O)Nc3ccc(C)c(NC(=O)c4cnc5cccnn45)c3)cc2C(F)(F)F)CC1`, the IC50 stood at 178 nM.
On to `CCN1CCN(Cc2ccc(C(=O)Nc3ccc(C)c(NCc4cnc5ccc(OC)nn45)c3)cc2C(F)(F)F)CC1`, for which the IC50 is 406 nM.
As for `CCN1CCN(Cc2ccc(C(=O)Nc3ccc(C)c(NC(=O)c4n[nH]c5ncccc45)c3)cc2C(F)(F)F)CC1`, the IC50 came to 254 nM.
As for `Cc1cn(-c2cc(NC(=O)c3ccc(C)c(NC(=O)c4cnc5cccnn45)c3)cc(C(F)(F)F)c2)cn1`, the IC50 turned out to be 1820 nM.
`Cc1cn(-c2cc(NC(=O)c3ccc(C)c(NC(=O)c4cnc5ccccn45)c3)cc(C(F)(F)F)c2)cn1`: the IC50 is 486 nM.
`CCN1CCN(Cc2ccc(C(=O)Nc3ccc(C)c(NC(=O)c4cnc5ccccn45)c3)cc2C(F)(F)F)CC1`: the IC50 is 149 nM.
As to `CCN1CCN(Cc2ccc(C(=O)Nc3ccc(C)c(NC(=O)c4cc[nH]n4)c3)cc2C(F)(F)F)CC1`, the IC50 was found to be 4720 nM.
With `Cc1ccc(NCc2ccc(C(F)(F)F)nc2)cc1NC(=O)c1cnc2cccnn12`, the IC50 is above 10000 nM.
